{"source": "patent US20060030550A1", "about": "“Pharmaceutical formulations” (priority 2004, published 2006)", "origin": "cited, not measured here", "key": {"[1]": {"details": "topically active steroid"}, "[2]": {"details": "preclinical testing"}, "[3]": {"details": "R112 over placebo, recent study"}}, "data": [{"smiles": "C[C@@H]1C[C@H]2[C@@H]3CCC4=CC(=O)C=C[C@]4(C)[C@@]3(Cl)[C@@H](O)C[C@]2(C)[C@@]1(OC(=O)c1ccco1)C(=O)CCl", "note": "[Mometasone Furoate]", "values": [{"measurement": "bioavailability", "setting": "[1]", "result": "not readily bioavailable"}]}, {"smiles": "Cc1cc(CCCOc2c(C)cc(-c3noc(C(F)(F)F)n3)cc2C)on1", "note": "[Pleconaril, 1,2,4-oxadiazole3-[3,5-Dimethyl-4-[3-(3-methyl-5-isoxazolyl)propoxy]phenyl]-5-(trifluoremethyl)]", "values": [{"measurement": "activity against rhinoviruses", "setting": "rhinoviruses", "result": "active against rhinoviruses"}]}, {"smiles": "Oc1cccc(Nc2ncc(F)c(Nc3cccc(O)c3)n2)c1", "note": "[R112]", "values": [{"measurement": "symptoms most closely associated with chronic nasal congestion (e.g. stuffy nose)", "setting": "R112 over placebo", "result": "improved"}, {"measurement": "absolute difference over placebo", "setting": "[3]", "result": 9, "unit": "%"}, {"measurement": "relative improvement over placebo", "setting": "[3]", "result": "greater than 20%"}, {"measurement": "improvement from baseline measurements", "setting": "baseline = prior to drug initiation", "result": "up to 38%"}]}, {"smiles": "O=c1ccn([C@@H]2O[C@H](COP(=O)(O)OP(=O)(O)OP(=O)(O)OP(=O)(O)OC[C@H]3O[C@@H](n4ccc(=O)[nH]c4=O)[C@H](O)[C@@H]3O)[C@@H](O)[C@H]2O)c(=O)[nH]1", "note": "[diquafosol]", "values": [{"measurement": "secretions of natural tear components", "setting": "[2]", "result": "increased"}]}]}
